Data reported in US7638624B2, “Compositions and methods relating to novel benzodiazepine compounds and derivatives” (The Regents of the University of Michigan, priority 2005, dated 2009).

Assays:
F1F0-ATPase = F1F0-ATPase inhibition; cited from earlier work
Ramos cells [1] = assay: Ramos cells exposed to compounds, O2- detected with dihydroethidium (DHE); type: cell-based; conditions: 1 hour, 2% FBS, FIG. 2
Description: (§1) Ramos cells were exposed to the following compounds:
To detect O2^−, cells were incubated with dihydroethidium (DHE).

Ramos cells [2] = assay: Detection of cell death in Ramos cells, viability by propidium iodide staining; type: cell-based; conditions: 24 hours, 2% FBS, PI 1 μg/mL, FIG. 1
Description: as §1
Cell viability was assessed by staining with propidium iodide (PI, 1 μg/mL).

Structure (SMILES) | IC50 (F1F0-ATPase) [nM] | cellular death (O2- detection with dihydroethidium) (Ramos cells [1]) | cellular death (cell viability by propidium iodide staining) (Ramos cells [2])
CC[C@H]1/C=C/C=C/C[C@@H](C)[C@H](O)[C@@](C)(O)C(=O)[C@@H](C)[C@H](O)[C@@H](C)C(=O)[C@@H](C)[C@H](O)[C@@H](C)/C=C/C(=O)O[C@@H]2[C@H](C)[C@H](CC1)O[C@]1(CC[C@H](C)[C@H](C[C@@H](C)O)O1)[C@H]2C [oligomycin] | 10 | – | –
CC1CN(c2ccc(O)cc2)c2cc(Cl)ccc2N(Cc2ccc3ccccc3c2)C1=O (stereo not drawn) [GD-423] | – | causes cell death | causes cell death
